In patent US7108865B2, “Controlled-release dosage forms of azithromycin” (Pfizer Inc, priority 1994, dated 2006):

Settings: pH 7
From the text: A third class of azithromycin sustained-release dosage forms includes the osmotic delivery devices or “osmotic pumps” as they are known in the art. Osmotic pumps comprise a core containing an osmotically effective composition surrounded by a semipermeable membrane. The term “semipermeable” in this context means that water can pass through the membrane, but solutes dissolved in water cannot. In use, when placed in an aqueous environment, the device imbibes water due to the osmotic activity of the core composition. […] The osmotically effective composition includes water-soluble species, which generate a colloidal osmotic pressure, and water-swellable polymers.

CC[C@H]1OC(=O)[C@H](C)[C@@H](O[C@H]2C[C@@](C)(OC)[C@@H](O)[C@H](C)O2)[C@H](C)[C@@H](O[C@@H]2O[C@H](C)C[C@H](N(C)C)[C@H]2O)[C@](C)(O)C[C@@H](C)CN(C)[C@H](C)[C@@H](O)[C@]1(C)O [azithromycin dihydrate]
solubility: much lower

Azithromycin fumarate
osmotic pressure corresponding to the solubility: about 3 atmospheres
solubility: about 100 mg/ml
